# Assay results taken from PMC5297809, “Design, Synthesis and Antifungal Activity Evaluation of New Thiazolin-4-ones as Potential Lanosterol 14α-Demethylase Inhibitors” (International Journal of Molecular Sciences, 2017).
# Read-outs that look alike come from different tables or passages of the source.
# Key:
# [1] = lipophilicity by RP-TLC with PCA; format: physicochemical; parameters: key to P1 / P2: PCA scores of compounds computed from Rf data; conditions: for RM0: RP-TLC C18, water-i-propanol 45-65%, intercept, RM extrapolated to 0% organic modifier (lipophilicity); for b: RP-TLC regression slope (specific hydrophobic surface area); for P1: score of first principal component of Rf data, low P1 = highly lipophilic; for P2: score of second principal component of Rf data
# Protocol: The lipophilic character of twenty thiazolin-4-one derivatives was assessed with the help of the principal component analysis (PCA) based on the reversed-phase thin-layer chromatography (RP-TLC) data.
# The chromatographic behavior of the test compounds was studied on C18 silicagel bonded 60 RP-180F254S TLC (20 × 20 cm) plates, purchased from Merck (Darmstadt, Germany). The test compounds’ solutions (1 mg/mL) were prepared by dissolving the samples in DMSO (Merck, Darmstadt, Germany). The plates were manually spotted with 3 µL aliquots of each solution at 10 mm from the base and 5 mm from the edge of the plate, leaving a 10 mm distance between successive spots, and developed by the ascending technique, without preconditioning. Chromatography was performed in a normal developing chamber at room temperature (~24 °C), the developing distance being of 9 cm. The solvent system used as mobile phase consisted of a water-i-propanol mixture, with a varying content of organic modifier (i-propanol—concentration ranged between 45% and 65% (v/v), with 5% vol. increments). Before the development, the chamber was saturated with the mobile phase for 15 min. After being developed, the dried plates were visually inspected under the UV light (λ = 254 nm), each spot was clearly marked and its distance was manually measured in order to calculate the Rf values. The spots of the compounds 3f, 10 and 11 were not visible in UV light, thus their Rf values could not be calculated, therefore they were excluded from this assay.
# Based on the Rf values, one of the most common lipophilic estimator, meaning the isocratic retention factor RM was calculated using the Bate-Smith and Westall equations [40].
# RP-TLC provides retention data in the form of Rf and the corresponding RM values (Equation (2)) that can be used to derive chromatographic descriptors for estimating lipophilicity: RM0, b and PCA. The most popular lipophilicity descriptor estimated by this method is RM and it is derived from the retention factor (Rf) according to the following formula: RM = log[(1/Rf) − 1] (2) where Rf is calculated on the basis of migration distance of a compound and the solvent front.
# As RM value (related to the molecular lipophilicity) depends linearly on the concentration of the organic modifier in the mobile phase, the value is extrapolated to pure water as mobile phase. In order to increase the accuracy of the lipophilicity determination, the RM values extrapolated to zero organic modifier concentration (RM0) have been calculated from the linear correlation between the RM values and the concentration of the organic component of the mobile phase: RM = RM0 + bc (3) where RM0 is the lipophilicity estimation parameter, RM is the retention of the solute, b is the slope, and c is the concentration of the mobile phase organic modifier (i-propanol).
# The intercept (RM0) in Equation (3) represents the extrapolated RM values at 0% organic modifier.
# PCA was performed on the obtained retention parameters with the help of XL-STAT extension. […] PCA gave the coordinates (scores) of the studied compounds and also the loadings of the variables (solvents) on the principal components.
# [2] = tested on: Candida albicans ATCC 10231; experiment: broth microdilution MIC/MFC; format: cell-based
# [3] = tested on: Candida parapsilosis ATCC 22019; experiment: broth microdilution MIC/MFC; format: cell-based; conditions: Lodderomyces parapsilosis, ATCC22019
# [4] = tested on: Candida albicans ATCC 18804; experiment: broth microdilution MIC/MFC; format: cell-based
# [5] = tested on: Candida albicans ATCC 10231; experiment: cup-plate agar diffusion method, inhibition zone diameters; format: cell-based
# Candida krusei ATCC 6258 = experiment: broth microdilution MIC/MFC; format: cell-based; conditions: Pichia kudriavzevii, ATCC6258
# [6] = ATCC10231, C. albicans ATCC 10231, read-out: MFC
# [7] = ATCC10231, C. albicans ATCC 10231, read-out: MIC
# [8] = C. parapsilosis ATCC 22019, read-out: MFC
# [9] = C. parapsilosis ATCC 22019, read-out: MIC
# [10] = ATCC18804, C. albicans ATCC 18804, read-out: MFC
# [11] = ATCC18804, C. albicans ATCC 18804, read-out: MIC
# [12] = ATCC10231, C. albicans ATCC 10231, 1 mg/mL in DMSO, 20 µg/well, mean of three ± SD, read-out: inhibition zone diameters
# [13] = C. krusei ATCC 6258, read-out: MFC
# [14] = C. krusei ATCC 6258, read-out: MIC
Compound,RM0 [1],b [1],P1 [1],P2 [1],"MFC [2, 6] [µg/mL]","MIC [2, 7] [µg/mL]","MFC [3, 8] [µg/mL]","MIC [3, 9] [µg/mL]","MFC [4, 10] [µg/mL]","MIC [4, 11] [µg/mL]",melting point [°C],"zone of inhibition at 1000 µg/mL [5, 12] [mm]",MFC (Candida krusei ATCC 6258; [13]) [µg/mL],MIC (Candida krusei ATCC 6258; [14]) [µg/mL],also measured
"C=CCNC1=NC(=O)C(=Cc2ccc(Cl)cc2Cl)S1 [Compound 3b, 2-(Allylamino)-5-(2,4-dichlorobenzylidene)thiazol-4(5H)-one]",2.2398,−3.6102,−1.263,−0.062,31.2,31.2,15.6,7.81,15.6,15.6,238,20 ± 0.5,31.2,15.6,
"C=CCNC1=NC(=O)C(=Cc2coc3ccc(Cl)cc3c2=O)S1 [Compound 3e, 2-(Allylamino)-5-((6-chloro-4-oxo-4H-chromen-3-yl)methylene)thiazol-4(5H)-one]",2.2869,−3.9184,−0.349,−0.354,62.5,31.2,15.6,7.81,31.2,15.6,299 to 301,20 ± 0.5,31.2,15.6,
"C=CCNC1=NC(=O)C(=Cc2cccc(Br)c2)S1 [Compound 3f, 2-(Allylamino)-5-(3-bromobenzylidene)thiazol-4(5H)-one]",,,,,3.9,1.95,3.9,1.95,15.6,7.81,330,22 ± 0.2,7.81,3.9,
"O=C1N=C(Nc2cccc3ccccc23)SC1=Cc1csc(-c2ccccc2)n1 [Compound 9d, 2-(Naphthalen-1-ylamino)-5-((2-phenylthiazol-4-yl)methylene)thiazol-4(5H)-one]",3.287,−4.6935,−3.746,0.618,15.6,7.81,0.24,0.12,3.9,3.9,312,20 ± 1,0.48,0.24,
"O=C1N=C(Nc2cccc3ccccc23)SC1=Cc1cccc(Cl)c1 [Compound 9a, 5-(3-Chlorobenzylidene)-2-(naphthalen-1-ylamino)thiazol-4(5H)-one]",2.5309,−4.1292,−1.227,−0.239,7.81,3.9,0.97,0.48,7.81,1.95,140,18 ± 1,0.97,0.48,
"O=C1CSC(Nc2ccccc2)=N1 [Compound 5, 2-(phenylamino)thiazol-4(5H)-one]",0.9459,−2.2931,2.796,0.238,,,,,,,,,,,"MFC ([2]; ATCC10231): 0.48 µg/mL; MIC ([2]; ATCC10231): 0.24 µg/mL; MFC [3]: 0.12 µg/mL; MIC [3]: 0.06 µg/mL; MFC ([4]; ATCC18804): 0.24 µg/mL; MIC ([4]; ATCC18804): 0.12 µg/mL; zone of inhibition at 1000 µg/mL ([5]; ATCC10231, read-out: inhibition zone diameters): 22 ± 0.5 mm; MFC (Candida krusei ATCC 6258): 0.12 µg/mL; MIC (Candida krusei ATCC 6258): 0.06 µg/mL"
"C=CCNC1=NC(=O)C(=Cc2csc(-c3ccccc3)n2)S1 [Compound 3d, 2-(Allylamino)-5-((2-phenylthiazol-4-yl)methylene)thiazol-4(5H)-one]",2.2119,−3.7366,−0.549,−0.241,62.5,31.2,15.6,7.81,62.5,31.2,339,20 ± 0.2,31.2,15.6,
"O=C1N=C(Nc2ccccc2)SC1=Cc1csc(-c2ccccc2)n1 [Compound 6d, 2-(Phenylamino)-5-((2-phenylthiazol-4-yl)methylene)thiazol-4(5H)-one]",2.1996,−3.8092,−0.168,−0.359,7.81,3.9,7.81,3.9,15.6,7.81,287 to 289,20 ± 1,15.6,7.81,
"O=C1CSC(c2ccccc2)=N1 [Compound 11, 2-phenylthiazol-4(5H)-one]",,,,,0.48,0.24,0.12,0.06,0.24,0.12,,18 ± 1,0.48,0.12,
"O=C1N=C(Nc2ccccc2)SC1=Cc1ccc(Cl)cc1Cl [Compound 6b, 5-(2,4-Dichlorobenzylidene)-2-(phenylamino)thiazol-4(5H)-one]",2.4679,−4.0118,−1.253,−0.186,31.2,15.6,3.9,3.9,31.2,15.6,204 to 206,20 ± 1,7.81,7.81,
"C=CCNC1=NC(=O)C(=Cc2ccc(O)cc2)S1 [Compound 3h, 2-(Allylamino)-5-(4-hydroxybenzylidene)thiazol-4(5H)-one]",1.1465,−2.6897,2.905,0.056,0.48,0.24,0.97,0.12,0.97,0.48,338,20 ± 0.5,0.97,0.24,
"O=C1N=C(Nc2cccc3ccccc23)SC1=Cc1coc2ccc(Cl)cc2c1=O [Compound 9e, 5-((6-Chloro-4-oxo-4H-chromen-3-yl)methylene)-2-(naphthalen-1-ylamino)thiazol-4(5H)-one]",2.3983,−3.319,−3.292,0.708,15.6,7.81,3.9,1.95,3.9,1.95,266 to 268,22 ± 0.5,3.9,1.95,
"O=C1CSC(Nc2cccc3ccccc23)=N1 [Compound 8, 2-(naphthalen-1-ylamino)thiazol-4(5H)-one]",1.6225,−3.0931,1.125,−0.163,0.24,0.12,0.12,0.03,0.24,0.12,,24 ± 1,0.12,0.06,
